Measured values reported in US4612285A (priority 1982, dated 1986).
≈ marks a conversion by molar mass, not a printed value. Entries after “also recorded” stand apart in the source; their conditions may differ.

Key:
Pyricularia oryzae = assay type: cell-based
Sarcoma-180 = assay: Effect on Sarcoma-180 in mice; assay type: in vivo, mice (ICR, male, 6 weeks age)
Description: Sarcome-180 (1×10^5 cells) is inoculated intra peritoneally in mice (ICR, male, 6 weeks age), administered the drug and the number of survival dates is observed.

Gram positive bacteria = assay: Antibacterial action, Gram positive bacteria (summary); assay type: cell-based; settings: summary in words
Description: (§1) (1) Antimicrobial properties:

yeast and fungi = assay: Antimicrobial action, yeast and fungi (summary); assay type: cell-based; settings: summary in words
Description: as §1

Stability in heating = assay type: physicochemical; settings: vacuum concentration preferably controlled below 60° C.
Gram negative bacteria = assay: Antimicrobial action, Gram negative bacteria (summary); assay type: cell-based; settings: summary in words
Description: as §1

[1] = test system: Ehrlich ascites carcinoma; assay: Effect on Ehrlich ascites carcinoma in mice; assay type: in vivo, mice (ddY, male, 6 weeks age)
Procedure: Ehrlich ascites carcinoma, 2×10^6 cells, is inoculated into mice (ddY, male, 6 weeks age) intra peritoneally, administered awamycin as shown in the table, number of survival dates is observed.
Administered date is designates as 0th day at tumor inoculation date. Number of survival dates is shown as mean value in 4-5 mice in one group. Increased life span is calculated according to the following equation. [formula]

Aspergillus nigar = assay: Antimicrobial properties (MIC); assay type: cell-based
Description: as §1

[2] = test system: Klebsiella pneumonia PCI 602; assay: Antimicrobial properties (MIC); assay type: cell-based
Description: as §1

Candida albicans = assay: Antimicrobial properties (MIC); assay type: cell-based
Description: as §1

Shigella sonnai = assay: Antimicrobial properties (MIC); assay type: cell-based
Description: as §1

Salmonella typhimurium = assay: Antimicrobial properties (MIC); assay type: cell-based
Description: as §1

[3] = test system: Staphylococcus aureus FDA 209P; assay: Antimicrobial properties (MIC); assay type: cell-based
Description: as §1

Trichophyton ferrugineum = assay: Antimicrobial properties (MIC); assay type: cell-based
Description: as §1

[4] = test system: Pseudomonas aeruginosa P-3; assay: Antimicrobial properties (MIC); assay type: cell-based
Description: as §1

[5] = test system: Bacillus subtilis PCI 219; assay: Antimicrobial properties (MIC); assay type: cell-based
Description: as §1

Saccharomyces sake = assay: Antimicrobial properties (MIC); assay type: cell-based
Description: as §1

Escherichia coli NIHJ = assay: Antimicrobial properties (MIC); assay type: cell-based
Description: as §1

Sarcina lutea PCI 1001 = assay: Antimicrobial properties (MIC); assay type: cell-based
Description: as §1

Solubility = assay type: physicochemical

COC(=O)C1C(O)C(C)C(O)C(C)/C=C(/C)C(=O)c2c(OC)c(C)c(O)c3c2C(=O)C(SC)=C(NC(=O)/C(C)=C\C=C\C(C)C(O)C(C)C1O)C3=O (stereo not shown) [awamycin]
MIC (Pyricularia oryzae): > 100 µg/mL
Increased life span (Sarcoma-180; 0.75 mg/kg/day, administering day 1-9): 64%
Number of survival dates (mean value) (Sarcoma-180; 0.75 mg/kg/day, administering day 1-9, control 14): 23
Increased life span (Sarcoma-180; 1.5 mg/kg/day, administering day 1-9): 200%
Number of survival dates (mean value) (Sarcoma-180; 1.5 mg/kg/day, administering day 1-9, control 14): 42
Increased life span (Sarcoma-180; 3.1 mg/kg/day, administering day 1-9): > 329%
Number of survival dates (mean value) (Sarcoma-180; 3.1 mg/kg/day, administering day 1-9, control 14): > 60
Increased life span (Sarcoma-180; 6.3 mg/kg/day, administering day 1-9): 186%
Number of survival dates (mean value) (Sarcoma-180; 6.3 mg/kg/day, administering day 1-9, control 14): 40
Increased life span (Sarcoma-180; 25 mg/kg/day, administering day 0, 1): 100%
Number of survival dates (mean value) (Sarcoma-180; 25 mg/kg/day, administering day 0, 1,, control 12): 24
antitumor activity / growth inhibitory activity (Sarcoma-180; Sarcoma-180, in words): has antitumor activity; also recorded: exhibits growth inhibitory activity
antibacterial action against some Gram positive bacteria (Gram positive bacteria): shows antibacterial action against some of Gram positive bacteria; also recorded: active against Gram positive bacteria
action against yeast and fungi (yeast and fungi): no action
Stability in heating (Stability in heating): stable in heating
action against Gram negative bacteria (Gram negative bacteria): no action
Increased life span ([1]; 6.3 mg/kg/day, administering date 1-9): 73%
Number of survival date (median) ([1]; 6.3 mg/kg/day, administering date 1-9, control 22): 38
Increased life span ([1]; 25 mg/kg/day, administering date 0, 1): 100%
Number of survival date (median) ([1]; 25 mg/kg/day, administering date 0, 1,, control 20): 40
antitumor activity / growth inhibitory activity ([1]; Ehrlich ascites carcinoma, in words): has antitumor activity; also recorded: exhibits growth inhibitory activity
MIC (Aspergillus nigar): > 100 µg/mL
MIC [2]: > 100 µg/mL
MIC (Candida albicans): > 100 µg/mL
MIC (Shigella sonnai): > 100 µg/mL
MIC (Salmonella typhimurium): > 100 µg/mL
MIC [3]: 0.8 µg/mL (≈ 1.08 µM)
MIC (Trichophyton ferrugineum): > 100 µg/mL
MIC [4]: > 100 µg/mL
MIC [5]: 0.1 µg/mL (≈ 0.134 µM)
MIC (Saccharomyces sake): > 100 µg/mL
MIC (Escherichia coli NIHJ): > 100 µg/mL
MIC (Sarcina lutea PCI 1001): 0.05 µg/mL (≈ 0.0672 µM)
Solubility (Solubility; alcohols (methanol, ethanol), chlorinated methanes, ketones, esters, benzene, toluene, dimethylformamide, dimethyl sulfoxide): soluble
Solubility (Solubility; diethyl ether): slightly soluble
Solubility (Solubility; hexane and petroleum ether): insoluble
Solubility (Solubility; water): slightly soluble
